The text below walks through data of patent publication US20090156620A1, “[4-(6-FLUORO-7-METHYLAMINO-2,4-DIOXO-1,4-DIHYDRO-2H-QUINAZOLIN-3-YL)-PHENYL]-5-CHLORO-THIOPHEN-2-YL-SULFONYLUREA SALTS, FORMS AND METHODS RELATED THERETO” (Portola Pharmaceuticals, Inc., priority 2007, published 2009).

A short description of data set [1]: gravimetric vapour sorption (GVS). The data set is classed as physicochemical. As for the experimental part: Sorption isotherms were obtained using a Hiden IGASorp moisture sorption analyser, controlled by CFRSorp software. The sample temperature was maintained at 25° C. by a Huber re-circulating water bath. The humidity was controlled by mixing streams of dry and wet nitrogen, with a total flow rate of 250 ml.min^−1. […] (typical room conditions). A moisture sorption isotherm was performed as outlined below (2 scans giving 1 complete cycle). […] The software uses a least squares minimisation procedure together with a model of the mass relaxation, to predict an asymptotic value. […] The minimum equilibration time was set to 1 hour and the maximum to 4 hours. The sample was recovered after completion of the isotherm and re-analysed by XRPD.

The nature of data set [2]: accelerated stability test, chemical purity. The data set is classed as physicochemical. Particulars: one week, 40° C., 75% RH. Here is the method: Purity analysis was performed on an Agilent HP1100 system equipped with a diode array detector and using ChemStation software v9.
Data set [3] is described as follows: solid form stability on storage at elevated temperature/humidity, by XRPD. It is filed as physicochemical. Particulars: 75% RH/40° C. for up to 6 months. Here is the method: To 20 mg of [4-(6-fluoro-7-methylamino-2,4-dioxo-1,4-dihydro-2H-quinazolin-3-yl)-phenyl]-5-chloro-thiophen-2-yl-sulfonylurea in 3 mL of the various solvents, was added 1.1 eq. of the base in 1 mL solvent. The mixture was shaken for 2 hours and the solutions were left to evaporate down to half their volume to try to precipitate out the salt. […] Oils/emulsions and opaque liquids were left to maturate at 50° C./ambient in an 8 hour cycles for several weeks. […] Solid samples (crystalline and amorphous) were then filtered, dried and then analyzed to judge their purity, crystallinity and stability. Solids were analysed by ^1H NMR to confirm salt formation and analyzed by ion chromatography and TGA to obtain the stoichiometry of the salt.

Data set [4] in a line: solid form stability of API dispersed in aqueous vehicle. The note with it: dry ground API dispersed into aqueous 0.1M phosphate buffer. It is filed as physicochemical. From the text:
It was observed that after grinding the API with the diluent of Tox formulation, i.e., 0.5% methylcellulose and 0.1M phosphate sodium buffer at pH7.4, the drug particles became very dense and quickly precipitated during transfer and dosing. […] In addition, if only dry grinding is used to reduce the particle size of the API first and subsequently, the API is quickly dispersed into aqueous 0.1M phosphate buffer without applying significant mechanical stress, the solid form of the API can be maintained in form B for at least 6 hours.

Data set [5] is described as follows: polymorphism experiments, form B slurried in solvents. It is filed as physicochemical. The note with it: ca. 50 mg in ten volumes, ambient, two hours. An excerpt:
The propensity of [4-(6-fluoro-7-methylamino-2,4-dioxo-1,4-dihydro-2H-quinazolin-3-yl)-phenyl]-5-chloro-thiophen-2-yl-sulfonylurea potassium salt form B to form polymorphs was studied. Form B (a hemi-hydrate) was slurried in a range of solvents (neat and mixtures). The solvents were chosen based on their pharmaceutical acceptability and also a range of functional groups and polarities such as alcohols, ethers and esters. To encourage hydrate formation, aqueous mixtures were also chosen. The solvents used are detailed in Table 7.
Approximately 50 mg of [4-(6-fluoro-7-methylamino-2,4-dioxo-1,4-dihydro-2H-quinazolin-3-yl)-phenyl]-5-chloro-thiophen-2-yl-sulfonylurea potassium salt, form B was suspended in ten volumes of the solvents detailed in table 7 and stirred at ambient for two hours. […] The suspensions were filtered under vacuum and analysed by XRPD. Most of the solids remained as form B, with a 1:1 acetone/water mixture leading to a subtle change in solid form. The 1:1 tetrahydrofuran/water mixture generated a mixture of that subtly different form and form B.
To all the form B samples a further aliquot of five volumes of appropriate solvent was added and the suspensions were slurried at 50° C. for 4 hours then cooled to ambient for 4 hours. This cycle was repeated for a total of 24 hours, after which time the suspensions were filtered under vacuum and analysed by XRPD.

Data set [6] has as its system ADP-induced human platelet aggregation. Description: inhibition of ADP-mediated platelet aggregation in platelet-rich plasma (PRP assay). The data set is classed as cell-based. As for the experimental part:
The effect of testing the compound according to the invention on ADP-induced human platelet aggregation was assessed in a 96-well microtiter assay (see generally the procedures in Jantzen, H. M. et al. (1999) Thromb. Hemost. 81:111′-117) or standard cuvette light transmittance aggregometry using either human platelet-rich plasma (PRP) or human washed platelets.
For preparation of human platelet-rich plasma for aggregation assays, human venous blood was collected from healthy, drug-free volunteers into 0.38% sodium citrate (0.013 M, pH 7.0 final). Platelet-rich plasma (PRP) is prepared by centrifugation of whole blood at 160×g for 20 minutes at room temperature. […]
For cuvette light transmittance aggregation assays, serial dilutions (1:3) of test compounds were prepared in 100% DMSO in a 96 well V-bottom plate (final DMSO concentration in the cuvette was 0.6%). […] The aggregation reaction is recorded for ˜5 mins, and maximum extent of aggregation is determined by the difference in extent of aggregation at baseline, compared to the maximum aggregation that occurs during the five minute period of the assay. Inhibition of aggregation was calculated as the maximum aggregation observed in the presence of inhibitor, compared to that in the absence of inhibitor. […]

The target in data set [7] is T1, P2Y12 receptor on platelets (Homo sapiens, UniProt Q9H244).
T1 construct: endogenous in cells; host or cells: whole apyrase-washed human platelets (outdated from hospital blood banks, or fresh)
T1 sequence (Q9H244 whole entry): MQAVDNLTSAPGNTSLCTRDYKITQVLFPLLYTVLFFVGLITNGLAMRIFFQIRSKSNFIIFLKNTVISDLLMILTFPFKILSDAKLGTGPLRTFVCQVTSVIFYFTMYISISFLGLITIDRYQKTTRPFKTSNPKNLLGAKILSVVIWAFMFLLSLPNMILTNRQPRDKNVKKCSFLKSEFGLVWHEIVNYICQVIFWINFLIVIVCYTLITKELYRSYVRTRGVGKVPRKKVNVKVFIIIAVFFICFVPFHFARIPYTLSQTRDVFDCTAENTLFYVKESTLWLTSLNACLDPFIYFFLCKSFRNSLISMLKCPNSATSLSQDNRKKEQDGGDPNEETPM
Put plainly: platelet ADP receptor binding assay (ARB), inhibition of [3H]2-MeS-ADP binding to platelets. As for the experimental part:
1. The Ability of Candidate Molecules to Inhibit the Binding of [3H]2-MeS-ADP to the P2Y12 Receptor on Platelets was Determined Using a Radioligand Binding Assay
Utilizing this assay the potency of inhibition of such compounds with respect to [^3H]2-MeS-ADP binding to whole platelets is determined. Under the conditions described in II (3) below, the binding of [^3H]2-MeS-ADP is solely due to the interaction of this ligand with the P2Y12 receptor, in that all the specific binding measured in this assay is compatable with a P2Y12 antagonist (i.e., the specific binding is reduced to background levels by competition with an excess of P2Y12 antagonist, with no competition of binding when a P2Y1 antagonist is pre-incubated with the platelet preparation). […]
A platelet ADP receptor binding assay (ARB) using the tritiated potent agonist ligand [^3H]2-MeS-ADP (Jantzen, H. M. et al. (1999) Thromb. Hemost. 81:111-117) has been adapted to the 96-well microtiter format. […] Total binding is determined in the absence of test compounds. […] The platelet-bound radioactivity on the filtermats is determined in a scintillation counter (Microbeta 1450, Wallac Inc., Gaithersburg, Md.). Specific binding is determined by subtraction of non-specific binding from total binding, and specific binding in the presence of test compounds is expressed as % of specific binding in the absence of test compound dilutions. […]

Turning to `CNc1cc2[nH]c(=O)n(-c3ccc(NC(=O)NS(=O)(=O)c4ccc(Cl)s4)cc3)c(=O)c2cc1F.[K]` [Form A of the potassium salt, [4-(6-fluoro-7-methylamino-2,4-dioxo-1,4-dihydro-2H-quinazolin-3-yl)-phenyl]-5-chloro-thiophen-2-yl-sulfonylurea potassium salt 2.5 hydrate], the hygroscopicity entry in data set [1] is given as “less hygroscopic than the amorphous form of the sodium salt”. For the same compound, in data set [1] (25° C.), the “RH range in which the 2.5 hydrate is stable” value is listed as 20-90 % RH; the dehydration entry is “dehydrates between 20 and 0% RH”. Also, in data set [2], the “change in the chemical purity” value was “No change”.

Consider “[4-(6-fluoro-7-methylamino-2,4-dioxo-1,4-dihydro-2H-quinazolin-3-yl)-phenyl]-5-chloro-thiophen-2-yl-sulfonylurea potassium salt hemi hydrate [Form B of the potassium salt]”, for which, in data set [1], the “XRPD after the GVS experiment” value was “no phase change” and the hygroscopicity entry is on record as “non-hygroscopic”. Also, the “change in solid state” value in data set [3] was “no change in solid state”. In data set [4], the “time the solid form is maintained in form B” value is “at least 6 hours”. In addition, in data set [5], the “solvents that dissolved the salt” value is on record as 2-methoxyethanol was the only solvent that dissolved the potassium salt.

The IC50 is the concentration at which inhibition is half-maximal. A lower IC50 goes with greater potency. Regarding `CNc1cc2[nH]c(=O)n(-c3ccc(NC(=O)NS(=O)(=O)c4ccc(Cl)s4)cc3)c(=O)c2cc1Cl` [Example 3, [4-(6-chloro-7-methylamino-2,4-dioxo-1,4-dihydro-2H-quinazolin-3-yl)-phenyl]-5-chloro-thiophen-2-1-sulfonylurea], the IC50 is > 30 µM in data set [6] and > 0.5 µM in data set [7].

With `CNc1cc2[nH]c(=O)n(-c3ccc(NC(=O)NS(=O)(=O)c4ccc(Cl)s4)cc3)c(=O)c2cc1F` [Example 2, [4-(6-fluoro-7-methylamino-2,4-dioxo-1,4-dihydro-2H-quinazolin-3-yl)-phenyl]-5-chloro-thiophen-2-yl-sulfonylurea], the IC50 in data set [6] was < 10 µM; in data set [7], < 0.05 µM.
